From PubChem BioAssay AID266 (DTP/NCI, 2004)
Where “and” joins values, the source holds several entries; their conditions need not be identical. Identical values can stand only once. Results filed as inconclusive are left out.

System: Nude mice, LX-1 lung xenograft intrarenal, tumor weight T/C
Experiment: NCI In Vivo Anticancer Drug Screen. Data for tumor model Human Lung LX-1 Xenograft (intrarenal inoculation) in NU/NU BALB/C (nude) mice
Details: endpoint: mean tumor weight change, higher = larger tumour
Method: The antitumor activity of compounds was measured in mice bearing transplantable tumors. Survival or tumor size were measured and the results are expressed as the measurement made in the treated group (T) divided by the measurement made in the vehicle treated control group (C). The tumor model used in this assay is Human Lung LX-1 Xenograft (intrarenal inoculation) in NU/NU BALB/C (nude) mice

[1] = dose: 4.0 mg/kg/injection, schedule: Q01DX010 (sc), vehicle: saline

CC(=O)Oc1c[nH]c(=O)[nH]c1=O
T/C (dose: 200.0 mg/kg/injection, schedule: Q04DX003 (sc), vehicle: distilled water + Tween-80): 98 % of control
T/C (dose: 400.0 mg/kg/injection, schedule: Q04DX003 (sc), vehicle: distilled water + Tween-80): 76 % of control
T/C (dose: 800.0 mg/kg/injection, schedule: Q04DX003 (sc), vehicle: distilled water + Tween-80): 104 % of control

CC(=O)C(=O)O.CC(=O)C(=O)O.[NH-]C1CCCCC1[NH-].[Pt+2] (stereo unspecified)
T/C (dose: 9.37 mg/kg/injection, schedule: Q04DX003 (sc), vehicle: other): 67 % of control
T/C (dose: 18.75 mg/kg/injection, schedule: Q04DX003 (sc), vehicle: other): 76 % of control
T/C (dose: 37.5 mg/kg/injection, schedule: Q04DX003 (sc), vehicle: other): 80 % of control

CCC(C(=O)O)C(=O)O.[NH-]CC1CCCC[N-]1.[Pt+2]
T/C (dose: 100.0 mg/kg/injection, schedule: Q04DX003 (sc), vehicle: saline): 114 % of control
T/C (dose: 200.0 mg/kg/injection, schedule: Q04DX003 (sc), vehicle: saline): 90 % of control
T/C (dose: 400.0 mg/kg/injection, schedule: Q04DX003 (sc), vehicle: saline): 60 % of control

Cc1cc2nc3[nH]c4ccccc4c3nc2cc1C
T/C (dose: 100.0 mg/kg/injection, schedule: Q01DX010 (sc), vehicle: saline): 88 % of control
T/C (dose: 200.0 mg/kg/injection, schedule: Q01DX010 (sc), vehicle: saline): 190 % of control
T/C (dose: 400.0 mg/kg/injection, schedule: Q01DX010 (sc), vehicle: saline): 92 % of control
T/C (dose: 800.0 mg/kg/injection, schedule: Q01DX010 (sc), vehicle: saline): 97 % of control

CC1CCC(n2cnc3c(Cl)ncnc32)O1 (stereo unspecified)
T/C (dose: 300.0 mg/kg/injection, schedule: Q04DX003 (sc), vehicle: Klucel (hydroxypropylcellulose) (HPC)): 81 % of control

CN(C)N=Nc1ccc(C(=O)O)cc1
T/C (dose: 50.0 mg/kg/injection, schedule: Q04DX003 (ip), vehicle: saline): 2 % of control and 4 % of control
T/C (dose: 400.0 mg/kg/injection, schedule: Q04DX003 (ip), vehicle: saline): -62 % of control and -40 % of control

CC1=C(/C=C/C(C)=C/C=C/C(C)=C/C(=O)O)C(C)(C)CCC1
T/C (dose: 50.0 mg/kg/injection, schedule: Q01DX010 (sc), vehicle: saline with Tween-80): 75 % of control

CC[C@H]1CN2CCc3cc(OC)c(OC)cc3[C@@H]2C[C@@H]1C[C@H]1NCCc2cc(OC)c(OC)cc21
T/C [1]: 81 % of control

N#CN=[N+]([O-])c1ccc(C(=O)O)cc1
T/C (dose: 11.25 mg/kg/injection, schedule: Q04DX003 (sc), vehicle: Klucel (hydroxypropylcellulose) (HPC)): 66 % of control
T/C (dose: 22.5 mg/kg/injection, schedule: Q04DX003 (sc), vehicle: Klucel (hydroxypropylcellulose) (HPC)): 65 % of control
T/C (dose: 45.0 mg/kg/injection, schedule: Q04DX003 (sc), vehicle: Klucel (hydroxypropylcellulose) (HPC)): 47 % of control

CCCCCc1cc(O)c2c(c1)OC(C)(C)[C@@H]1CCC(C)=C[C@@H]21
T/C (dose: 150.0 mg/kg/injection, schedule: Q04DX003 (sc), vehicle: other): 94 % of control
T/C (dose: 300.0 mg/kg/injection, schedule: Q04DX003 (sc), vehicle: other): 91 % of control
T/C (dose: 600.0 mg/kg/injection, schedule: Q04DX003 (sc), vehicle: other): 76 % of control
T/C (dose: 1200.0 mg/kg/injection, schedule: Q04DX003 (sc), vehicle: other): 90 % of control

CCOC(=O)c1cn(C)c2c1C(O)=C(C(=O)OC)CC(=O)N2
T/C (dose: 300.0 mg/kg/injection, schedule: Q04DX003 (sc), vehicle: saline with Tween-80): 99 % of control
T/C (dose: 600.0 mg/kg/injection, schedule: Q04DX003 (sc), vehicle: saline with Tween-80): 55 % of control
T/C (dose: 1200.0 mg/kg/injection, schedule: Q04DX003 (sc), vehicle: saline with Tween-80): 111 % of control
T/C (dose: 2400.0 mg/kg/injection, schedule: Q04DX003 (sc), vehicle: saline with Tween-80): 154 % of control

OC1(CSc2ccccc2)CCCCC1
T/C (dose: 200.0 mg/kg/injection, schedule: Q04DX003 (sc), vehicle: saline with Tween-80): 75 % of control
T/C (dose: 400.0 mg/kg/injection, schedule: Q04DX003 (sc), vehicle: saline with Tween-80): 85 % of control
T/C (dose: 800.0 mg/kg/injection, schedule: Q04DX003 (sc), vehicle: saline with Tween-80): 82 % of control
T/C (dose: 1600.0 mg/kg/injection, schedule: Q04DX003 (sc), vehicle: saline with Tween-80): 90 % of control

COc1cccc2c1C(=O)c1c(O)c3c(c(O)c1C2=O)C[C@@](O)(C(C)=O)C[C@@H]3OC1CC(N)C(O)C(C)O1 (stereo partly specified)
T/C (dose: 2.0 mg/kg/injection, schedule: Q01DX010 (sc), vehicle: saline): 109 % of control
T/C [1]: 153 % of control
T/C (dose: 8.0 mg/kg/injection, schedule: Q01DX010 (sc), vehicle: saline): 31 % of control
